# Reference: US10588972B2, “Phthalocyanine probes and uses thereof” (LI-COR, INC., priority 2014, dated 2020)
# Experiments:
# Type in all cases: cell-based
# A431 cells = assay: VB-48 assay: vitality, viability and necrosis of treatments 1-10 (Table 3)
# Method: Briefly, A431 cells were labeled with respective probes for specific treatments (listed below); cells were rinsed and evaluated for labeling. The test include the following treatments: […], treatments 3-4 of EGF-IRDye® 700DX at 0.5 μM and radiation, treatments 5-6 of IRDye® 700DX NHSe at 5 μM and radiation, treatments 7-8 of panitumumab-IRDye® 700DX at about 0.1 μM and radiation, treatment 9 of a negative control with no probe and no irradiation, and treatment 10 of RGD-IRDye® 700DX and no irradiation. The probes were incubated for about 10 minutes and with a longer period of about 20 minutes for the RGD probe. The cells were monitored with microscopy and morphology was examination 24 hours post treatment.
# Low binding was expected for the RGD probe due to the low level of integrin receptors on A431 cells. […] By 3 hours post-irradiation all treatments except RGD (Treatment 1) show significant cytotoxicity. Vitality, viability and necrosis assays such as a VB-48 assay and JC-1 assay were performed.
# HTB-186 cells [1] = assay: Caspase 3/7 assay (Example 10, Table 8); details: 32 J/cm^2, probe about 5 hours, 20 hours post irradiation; 700DX-RGD and 700DX-EGF 500 nM
# Method: (§1) This example illustrates the ability of IRDye® 700DX small molecule conjugates to induce apoptosis in cells, e.g., cancer cells. In this study HTB-186 cells (a desmoplastic cerebellar medulloblastoma cell line) were treated with IRDye® 700DX small molecule conjugates (IRDye® 700DX labeled chlorotoxin, anti-EGFR Affibody®, RGD peptide and EGF ligand). Apoptosis was measured by evaluating caspase 3/7 activity and mitochondrial membrane potential. […]
# The caspase 3/7 assay was used to measure caspase 3/7 activity in the cells from the treatments listed above. […] Upon activation, the caspases cleave the substrate, and in turn, a fluorescence signal is emitted. […] The fluorescence can be detected by, for example, flow cytometry, fluorescence microscopy, and fluorescence-based image cytometry.
# (§2) To determine whether the treated cells are undergoing apoptosis, a caspase 3/7 assay and mitochondrial potential assay were performed. […] Table 8 below provides cells number, % viability, JC-1% shift, and % late apoptotic and dead cells as determined by caspase 3/7 assay.
# HTB-186 cells [2] = assay: JC-1 mitochondrial membrane potential assay (Example 10, Table 8); details: 32 J/cm^2, probe about 5 hours, 20 hours post irradiation; 700DX-RGD and 700DX-EGF 500 nM
# Method: as §1
# In this study a mitochondrial membrane potential assay was performed on cells from treatments 1-8 to determine whether the treated cells underwent apoptosis. […] As JC-1 dye accumulated in mitochondria, its fluorescence emission shifts from green (about 529 nm) to red (about 590 nm). The presence of red fluorescence due to JC-1 aggregate formation corresponds to regions of high mitochondrial polarization. Depolarized mitochondria are indicated by green fluorescence of the JC-1 monomers. A detectable decrease in the red/green fluorescence intensity ratio indicates mitochondrial depolarization, and thus, apoptosis. In a membrane potential assay, cells are incubated with the JC-1 dye and fluorescence is detected by, for example, flow cytometry, fluorescence microscopy, and fluorescence-based image cytometry. […]
# HTB-186 cells [3] = assay: Viability, cell number and microscopy morphology at 20 h post irradiation (Example 10)
# Method: This example illustrates the ability of IRDye® 700DX small molecule conjugates to induce apoptosis in cells, e.g., cancer cells. In this study HTB-186 cells (a desmoplastic cerebellar medulloblastoma cell line) were treated with IRDye® 700DX small molecule conjugates (IRDye® 700DX labeled chlorotoxin, anti-EGFR Affibody®, RGD peptide and EGF ligand). Apoptosis was measured by evaluating caspase 3/7 activity and mitochondrial membrane potential. Apoptosis can be characterized by a variety of cell morphological and biochemical changes including membrane blebbing, cell shrinkage, alteration of membrane asymmetry and permeability, and/or condensation of chromatin and nucleus (Coleman et al., Nat Cell Biol, 2001, 3(4):339-45, Bortner and Cidlowski, Biochem Pharmacol, 1998, 56(12):1549-59; van Engeland et al., Experimental Cell Research, 1997, 235:421-430).
# Microscopy images of cells in petri-dishes were captured at 20 h post irradiation. The images were captured in DIC and 700 nm to visualize the probe, and composite images were generated (DIC+700 nm) to visualize the overlay.
# as §2
# [4] = irradiated (I) 32 J/cm^2, RGD 0.5 μM, EGF 0.5 μM, NHSe 5 μM, Pan ~0.1 μM
# [5] = no irradiation (NI), RGD-700DX 0.5 μM
compound,measurement,setting,value
C[Si](C)(CCC[N+](CCCS(=O)(=O)O)(CCCS(=O)(=O)O)CCCS(=O)(=O)O)O[Si-2]123(O[Si](C)(C)CCC[N+](CCCS(=O)(=O)O)(CCCS(=O)(=O)O)CCCS(=O)(=O)O)n4c5c6ccccc6c4N=C4c6cccc(OCCCOC(=O)NCCCCCC(=O)NCCCC[C@@H]7NC(=O)[C@@H](Cc8ccccc8)NC(=O)[C@H](CC(=O)O)NC(=O)CNC(=O)[C@H](CCCNC(=N)N)NC7=O)c6C(=[N+]41)N=c1c4ccccc4c(n12)=NC1=[N+]3C(=N5)c2ccccc21 [RGD-700DX],% Healthy,A431 cells; [4],91.6%
same,% Necrotic,A431 cells; [4],7%
same,Cells/mL,A431 cells; [4],6.6 × 10^5 Cells/mL
same,Low % Vitality,A431 cells; [4],2%
same,% Healthy,A431 cells; [5],90.8%
same,% Necrotic,A431 cells; [5],5%
same,Cells/mL,A431 cells; [5],5.8 × 10^5 Cells/mL
same,Low % Vitality,A431 cells; [5],4%
same,Caspase 3 % late apoptotic + dead cells,HTB-186 cells [1],57%
same,JC-1 % shift,HTB-186 cells [2],44%
same,cell morphology,"HTB-186 cells [3]; 32 J/cm^2, 20 h post irradiation",appeared rounded and smaller
same,Cell #,"HTB-186 cells [3]; 32 J/cm^2, probe about 5 hours, 20 hours post irradiation, 700DX-RGD and 700DX-EGF 500 nM",0.6E6
